These are literature values, as cited in patent US20210213093A1, “COMPOSITIONS AND METHODS FOR ACTIVATING CELLULAR SIGNALING PATHWAYS” (LifeVantage Corporation, priority 2020, published 2021).

For this series the following is noted: background statement, no test described.

Each structure is given as a SMILES string.

In the case of `O=C(O)CCCC[C@@H]1CCSS1` (racemic) [Lipoic acid, lipoic acid], the “antioxidant power relative to vitamin E and vitamin C combined” value is listed as 400 times.
